Reference: paper PMC10060577, “Synthesis and physicochemical characterization of acyl myricetins as potential anti-neuroexocytotic agents” (Scientific Reports, 2023)
Where two headings read alike, the source gives them in different places.

Tests used:
[1] = system: hen egg chorioallantoic membrane; assay: HET-CAM test (hen egg chorioallantoic membrane irritancy); assay type: in vivo, chicken; conditions: 2 mL of 1 mg·mL^−1 solution, images 1 min after addition; for HET-CAM Score: graded from 0 (no irritation) to 3 (strong irritation)
Description: The HET-CAM is used for detecting ophthalmic irritancy in vivo[35]. For the HET-CAM, fertilized eggs were obtained from a local market in Korea and incubated for 10 days (37.5 °C and 45% humidity), by maintaining autorotation at 90°·h^−1 to ensure proper development and viability of the embryos. After incubation, the upper shell was cut in a circular shape, without damaging the inner membrane. Immediately after cutting, the inner membrane was carefully removed with forceps, to avoid injury to the blood vessels, and 2 mL of acyl myricetin solutions were placed on the CAM. Prior to the treatment, the solutions were prepared by mixing 1.9 mL of PBS and 100 μL of DMSO dissolving acyl myricetins, to prevent sedimentation of the crystalline solute. A mixture of PBS (1.9 mL) and DMSO (100 μL), and 1 M NaOH aqueous solution were used as negative and positive controls, respectively. Next, by turning an LED flashlight at the bottom of eggshell, CAM images were obtained 1 min after samples addition.
Based on the CAM images, the severity of any hemorrhage, blood-coagulation, and hyperemia was graded from 0 (no irritation) to 3 (strong irritation) according to a previously developed scoring method. We analyzed the CAM images using ImageJ (http://rsb.info.nih.gov/ij/) to prevent arbitrary judgments with respect to the previous scoring method; then we selected blood vessels in the CAM images, and measured hemorrhage, blood-coagulation, and hyperemia as follows. First, the CAM images were loaded individually into ImageJ, cropped to a fixed size to exclude the shell, and converted to grayscale. The CAM images, grayscaled with red stack, were adjusted using the MidGrey method, and the area fraction (%Area) values of black pixels in the adjusted CAM images were measured and recorded.

[2] = Stability assessment against oxidation in aqueous solution by UV/Vis absorbance spectra; assay type: physicochemical; conditions: PBS pH 7, 37 °C; for decay rate constant k: absorbance at 376 nm, exponential decay-plateau fitting
Description: To assess their stability in an aqueous environment at pH 7 and 37 °C, UV/Vis-light absorbance spectra of the separated acyl […] obtained using the Synergy H1 (BioTek Instruments Inc.; measuring interval of 3 nm, 25 °C), at a wavelength-range of 250-600 nm[34]. One hundred microliters of the separated esters (20 μg·mL^-1), dissolved in DMSO, were mixed in a micro-tube (2 mL) with 1.9 mL of phosphate buffered saline (PBS), pre-adjusted to pH 7 with 1 M HCl aqueous solution. After covering with a lid, the mixture was immediately incubated for 18 h in a heating shaking drybath (S08040; Thermo Scientific) at 37 °C, shaken at 700 rpm. […] The amount of non-oxidized acyl myricetin was determined, based on the absorbance ( abs ) at a wavelength of 376 nm at incubation time ( t ). An exponential decay-plateau fitting method was employed to determine decay rate constant values ( k , s^-1) for the acyl […] follows: ln(abs/abs0)=-[…]) where abs0 is the absorbance at the initiation of incubation and tp is the time in which the left side ( -kt ) reaches the plateau constant ( p ). The non-oxidized proportion of the esters, after all the incubation, was described as e^p . Monitoring the shift of specific peaks in the spectra for the acyl […] could be important for application in food and cosmetics because this can indirectly indicate color changes in the product, which would be unwelcomed to most of the customers. Therefore, the center of gravity in the spectra of the M esters was determined as follows, in order to monitor the shift of specific peaks Centerofgravitycg=∑(absiλi)/∑(absi) where absi is the absorbance at a specific wavelength ( λi , 300-400 nm). Based on the cg estimated during the incubations, the cg shifting rate ( k1 ) was determined using the two segment linear fitting curves as follows: […]1=[…] intercepts of linear curves for the left and right sides, respectively, t1 is the time that the left side ( k1t+cg1 ) takes to become the right side ( k2t+cg2 ), and k2 is an inclination of curve toward the right side.

[3] = Determination of 1-octanol/water partition coefficients (logP); assay type: physicochemical; conditions: 1-octanol/water (DDW); 1-octanol/DDW, 25 °C
Description: Values for logP were determined to quantify the lipophilicity or hydrophilicity of the separated acyl myricetins, using the previously reported method with slight modifications. After the addition of 1-octanol (500 μL) into 2 mL micro-tubes containing 1 mg of the separated acyl myricetins, the micro-tubes were vortexed for 1 min, followed by sonication (bath-type) for 5 min, and then 500 μL of DDW was added to the tubes. Next, the mixed solutions in the tubes were vortexed again for 5 min and phase-separated by centrifugation (3000 relative centrifugal force for 10 min at 25 °C). The 40 μL of upper layer (1-octanol) and 100 μL of lower layer (DDW) were collected and diluted with 1.96 mL of 1-octanol and 100 μL of DMSO, respectively. The solutes dissolved in the upper and lower layers were quantified based on the standard curves obtained from the UV/Vis-light absorbance spectra (250‒600 nm) using a microplate reader (Synergy H1; BioTek Instruments Inc., VT, USA; measuring interval of 3 nm, at 25 °C). Finally, the logP values were calculated as log(coctanol/cDDW), where coctanol and cDDW are the concentrations of the solutes in the upper and lower layers, respectively.

PC-12 cells = assay: Neutral red uptake (NRU) cytotoxicity assay; assay type: cell-based; conditions: 12 h incubation
Description: (§1) PC-12 cells, obtained from Korean Cell Line Bank (KCLB, Seoul, Korea), were cultured in media containing 84% (v/v) RPMI 1640 medium, 10% (v/v) heat-inactivated horse serum, 5% (v/v) heat-inactivated FBS, and 1% (v/v) antibiotic-antimycotic (100×) solution, under humidified conditions (37 °C, 5% CO2). The culture medium was refreshed every other day. Prior to further experiments, the viability of the cells in passages 1-5 was assessed using the trypan blue exclusion test. Harvested PC-12 cells (~ 80% confluency per well) were seeded into 96-well plates coated with type I-collagen and grown in the culture media for one day (37 °C, 5% CO2). Cells were treated with media containing the acyl […] incubated for 12 h. The media were aspirated, and cells were then incubated for 2 h with 0.33% (w/v) neutral red dissolved in the media. After the incubation, the neutral red media were carefully withdrawn, and cells were rinsed twice with PBS at 37 °C and dried for 1 h. Next, neutral red contained in the dried cells was extracted and solubilized with a solution of 50% (v/v) ethanol, 49% (v/v) DDW, and 1% (v/v) acetic acid, by incubating for 10 min. Absorbance of the neutral red-containing solution at 540 nm was recoded using the Synergy H1. Cell viability was determined based on the absorbance of treated cells compared to that of untreated cells (without acyl […]).

[4] = Neutral red uptake (NRU) cytotoxicity assay; assay type: cell-based; conditions: rat, PC-12 cells, 12 h incubation
Description: as §1

[5] = system: differentiated PC-12 cells; assay: Acetylcholine release assay; assay type: cell-based; conditions: 12 h incubation, read-out: EC50 (inhibition of acetylcholine release)
Description: PC-12 cells, obtained from Korean Cell Line Bank (KCLB, Seoul, Korea), were cultured in media containing 84% (v/v) RPMI 1640 medium, 10% (v/v) heat-inactivated horse serum, 5% (v/v) heat-inactivated FBS, and 1% (v/v) antibiotic-antimycotic (100×) solution, under humidified conditions (37 °C, 5% CO2). The culture medium was refreshed every other day. Prior to further experiments, the viability of the cells in passages 1-5 was assessed using the trypan blue exclusion test. Harvested PC-12 cells were seeded into 24-well plates coated with poly-D-[…] × 10^5 cells per well) and grown in the culture media for one day (37 °C, 5% CO2). […] GIBCO/Invitrogen) and incubated for 5 days. Then, the media were replaced with the low serum medium containing the acyl […] incubated for 12 h. Next, the acetylcholine released from the cells into the medium was quantified using an Acetylcholine Assay Kit (Fluorometric; Cell Biolabs, Inc., CA, USA) and the Synergy H1 (λex/λem, 530 nm/600 nm). Subsequently, using the Kit, the amount of released acetylcholine was determined by subtracting the basal level signal from the signal for sample-treated cells.

Compound: [Na+].[OH-] [1 M NaOH, NaOH, reference compound]
- HET-CAM Description [1]: Severe irritant
- HET-CAM Score [1]: 3

Compound: O=c1c(O)c(-c2cc(O)c(O)c(O)c2)oc2cc(O)cc(O)c12 [M, myricetin]
- decay rate constant k [2]: 0.00037 s⁻¹
- logP at 5 min [3]: 1.34 ± 0.1
- CC50 (PC-12 cells): 66.4 ± 10.9 µM
- CC50 at 12 h [4]: 65.4 µM
- EC50 ([5]; Rattus norvegicus): 5.36 ± 0.2 µM
- HET-CAM Description [1]: Non irritant
- HET-CAM Score [1]: 0

Compound: dipropionyl-myricetin [MP2]
- k value fold lower than that of myricetin [2]: 2.7 fold
- times by which the myricetin cg shift is faster than that of the compound [2]: 5.1 fold
- decay rate constant k [2]: 0.00013 s⁻¹
- EC50 [5]: 3.58 ± 0.75 µM
- HET-CAM Description [1]: Non irritant
- HET-CAM Score [1]: 0

Compound: monooctanoyl-myricetin [MO1]
- k value fold lower than that of myricetin [2]: ~ 3.1 fold
- times by which the myricetin cg shift is faster than that of the compound [2]: ~ 2.3 fold
- decay rate constant k [2]: 0.00012 s⁻¹
- EC50 [5]: 2.51 ± 0.89 µM
- HET-CAM Description [1]: Non irritant
- HET-CAM Score [1]: 0

Compound: monopropionyl-myricetin [MP1]
- k value fold lower than that of myricetin [2]: ~ 1.9 fold
- times by which the myricetin cg shift is faster than that of the compound [2]: ~ 2.4 fold
- decay rate constant k [2]: 0.0002 s⁻¹
- EC50 [5]: 3.84 ± 1.08 µM
- HET-CAM Description [1]: Non irritant
- HET-CAM Score [1]: 0
